Entries after “also recorded” stand apart in the source; their conditions may differ.
What was measured:
[1] = plasma pharmacokinetics of ARRY-382, Phase 1b Part A (with pembrolizumab); assay type: in vivo, human
[2] = test system: CSF-1; assay: pharmacodynamic analysis of circulating biomarkers: CSF-1 levels, Part A; assay type: in vivo, human
[3] = test system: advanced solid tumors; assay: preliminary antitumor activity by RECIST version 1.1 and irRC, Part A; assay type: in vivo, human; details: ARRY-382 300 mg cohort, with pembrolizumab
Description: Key eligibility criteria for Part A was adult patients with confirmed diagnosis of: bladder cancer, head and neck squamous cell cancer, ovarian cancer, triple-negative breast cancer, gastric cancer, metastatic colorectal cancer, or pancreatic ductal adenocarcinoma, refractory to standard of car, with no standard therapy available or for which the patient refused standard therapy; advanced, unresectable, or metastatic melanoma with or without prior treatment; or advanced/metastatic PD-L1-positive non-small cell lung cancer (NSCLC) meeting any of the following criteria: (1) tumors without EGFR or ALK genomic aberrations in patients who had received no prior systemic chemotherapy or had disease progression on or after platinum-containing chemotherapy, or (2) tumors with EGFR or ALK genomic aberrations in patients with disease progression on a US Food and Drug Administration-approved therapy for EGFR or ALK genomic tumor aberrations. Patients who received prior immune checkpoint inhibitor treatment were excluded from the study.
DLTs were determined using standard definitions.

[4] = Bendell et al. 2013, cited from earlier work
[5] = Phase 1b dose escalation (Part A): DLTs, adverse events, RP2D of ARRY-382 with pembrolizumab
[6] = Part A, ARRY-382 + pembrolizumab

Compound: Cc1cccc(Cn2nc(C3CC3)c3c(NC(=O)c4cnc5cc(OCCN6CCN(C)CC6)ccn45)cccc32)n1 [ARRY-382, N-(3-cyclopropyl-1-((6-methylpyridin-2-yl)methyl)-1H-indazol-4-yl)-7-(2-(4-methylpiperazin-1-yl)ethoxy)imidazo[1,2-a]pyridine-3-carboxamide]
- exposure in the 300 mg versus 400 mg dose cohorts ([1]; 300 mg vs 400 mg QD): similar
- dose proportionality of ARRY-382 exposure ([1]; 200, 300, 400 mg QD with pembrolizumab): generally dose-proportional
- PK interactions between ARRY-382 and pembrolizumab ([1]; patients, Part A): no evidence of any PK interactions
- average maximum increase in CSF-1 levels from baseline, 300 mg versus 400 mg cohorts ([2]; 300 mg vs 400 mg cohorts): similar
- average maximum increase in CSF-1 levels from baseline ([2]; ARRY-382 300 mg QD with pembrolizumab): 5.4 fold
- relation of increases from baseline in CSF-1 levels to ARRY-382 exposure ([2]; Part A): correlated with increasing ARRY-382 exposure
- patients with stable disease per irRC [3]: 3 patients
- stable disease per RECIST version 1.1, share of patients [3]: 33%
- stable disease per irRC, share of patients [3]: 50%
- doses with biological activity ([4]; QD): greater than or equal to 200 mg
- maximum tolerated dose (MTD) ([4]; once daily (QD)): 400 mg
- dose-limiting toxicities in the 200 mg cohort ([5]; ARRY-382 200 mg QD + pembrolizumab, six patients): No DTLs occurred; also recorded: No DLTs occurred
- patients who discontinued because of an AE of pneumonitis ([5]; ARRY-382 200 mg cohort, onset in cycle 4): One
- patients with dose reductions in the 300 mg cohort ([5]; ARRY-382 300 mg cohort): 3 patients
- patients who experienced a DLT in the 400 mg cohort ([5]; ARRY-382 400 mg QD + pembrolizumab): 2 of 7 and Two of seven
- course of AST and CK elevations after interruption of ARRY-382 ([5]; Part A): resolved in all patients; also recorded: reversible
- grade 4 events of increased blood CK ([5]; Part A): one
- patients with AST elevation who required dose reduction ([5]; Part A): 2 patients
- patients with CK elevation who required dose reduction ([5]; Part A): 3 patients
- patients with immune-related adverse events (investigator-classified) ([5]; Part A): 5 patients
- most common adverse events of any grade ([5]; Part A, 19 patients, ARRY-382 + pembrolizumab): increased laboratory values (AST, CK, ALT, alkaline phosphatase (ALP), lipase, amylase), fatigue, pyrexia, and nausea
- most common grade 3/4 events (>10%) [5, 6]: increased AST, increased CK, rash, lipase increased, increased ALP, increased ALT, and anemia
- patients with grade 3 AST elevation [5, 6]: 5 patients
- on-study deaths (on treatment or within 30 days of last dose) ([5]; Part A, cause disease progression in all cases): 3
- recommended phase 2 dose (RP2D) ([5]; QD continuously, in combination with pembrolizumab 2 mg/kg IV every 3 weeks): 300 mg
- immune-related adverse events, manageability ([5]; regardless of relationship to study drug): observed and were manageable

— patent publication US20190211102A1, “METHODS AND COMBINATION THERAPY TO TREAT CANCER” (Array BioPharma Inc., priority 2018, published 2019)
